The subject of one data set is C. albicans. The format is cell-based, Candida albicans. Conditions: 24 h. The procedure: 2-fold serial dilutions of 100× peptoid solutions were prepared in water and 2 μL of peptoid were added to each well in triplicate. […] MIC was defined as the lowest concentration of compound preventing fungal growth. This assay was repeated 3 times on separate days with each compound.

Data set [1] relates to HepG2 hepatocellular carcinoma cells. Kind of data set: Mammalian cytotoxicity, MTT, HepG2. The format is cell-based, human. In outline:
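HepG2 cells (1×10^5 cells/mL, phenol-red-free DMEM, 10% FBS) were exposed to 2-fold dilutions of compound at 1.56–200 μg/mL final, in triplicate, for 72 h at 37 °C, 5% CO2. MTT was added for 3 h and, after DMSO solubilization, absorbance was read at 570 nm. TD50 is the concentration giving a 50% growth reduction versus the water vehicle, reported as the mean of biological replicates ± SD.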

≈ marks a conversion by molar mass, not a printed value. Where a SMILES comes first, the peptide text is derived from it. [ ]: non-standard residue; d: D form. N(tridecyl)Gly = CCCCCCCCCCCCCNCC(=O)O; Gly(N-2-aminoethyl) = NCCNCC(=O)O; Gly(N-cHex) = O=C(O)CNC1CCCCC1; Nlys = NCCCCNCC(=O)O

With `CCCCCCCCCCCCCNCC(=O)N(CC(=O)N(CCCCN)CC(=O)N(CCN)CC(=O)N(CC(N)=O)C1CCCCC1)C1CCCCC1` [RMG8-8, Ntri-Ncha-Nlys-Nae-Ncha] (H-[N(tridecyl)Gly][Gly(N-cHex)][Nlys][Gly(N-2-aminoethyl)][Gly(N-cHex)]-NH2), the “MIC C. albicans” value with C. albicans came out at 25 µg/mL (≈ 32.8 µM). Besides, the “TD50 HepG2” value in data set [1] came out at 189 µg/mL.

These data come from patent publication US20240352066A1, “ANTIMICROBIAL COMPOUNDS AND THE METHOD OF USE” (priority 2021, published 2024).
